Measured values published in patent US9321809B2, “Macrocyclic compounds for suppressing replication of hepatitis C virus” (Ginkgo Pharma Co., Ltd., priority 2012, dated 2016).
Where two headings read alike, the source gives them in different places.

Key:
[1] = test system: HCV replicon-containing huh-7 cells (replicon 1b); test: HCV Replicon Assay (luciferase readout); assay type: cell-based; conditions: Hepatitis C virus; HCV replicon 1b in huh-7 cells, 48 h incubation, 1% DMSO, luciferase signal; read-out: EC50 (EC 50 on replicon 1b)
Method: Compounds of formuala (I) are tested for the ability to inhibit viral replication of the Hepatitis C viruses by the following in vitro assays.
DMEM (Life Technologies #41965-039) was supplemented with 10% FBS, 2 mM L-glutamine (Life Technologies #25030-024), penicillin (100 units/ml)/streptomycin (100 micrograms/ml) (Life Technologies #15140-114), 1× non-essential amino acids (Life Technologies #11140-035).
Complete media was prepared by mixing FBS, DMEM media with Geneticin (G418). The compete media was preincubated at 37° C. in a CO2 incubator. Then, HCV replicon-containing huh-7 cells (V. Lohmann et. al. Science, 285, (1999)110-113) was taken out from 37° C. incubator. The residual medium was absorbed, and the cells were washed with PBS. After washing fluid was removed, 1 ml 0.25% trypsin/0.02% EDTA solution. The cells were washed by the above trypsin/EDTA solution to make sure that each cell was cleaned. After the trypsin/EDTA solution was absorbed, the mixture was incubated at 37° C. in a CO2 incubator for 3-5 minutes. Morphological changes were observed by inverted microscope, till the cells were detached from the wall of container completely.
3 ml of complete media was added to make the cells to suspend. The cells are counted with hematometer. Appropriate volumes of the complete media was added to adjust the cell density to 100,000/ml. Cells were plated with 100 μl of suspension at 10,000/well of 96 well plate. Plates were placed into 37° C. 5% CO2 incubator for 24 h.
Preparation of Drug Solution:
Drugs were diluted under aseptic conditions.
Stock solutions may be prepared before the assay, which means that the test compounds are dissolved in 100% DMSO to afford a final concentration of 2 mM. Before the 96 well culture was completed, the stock solution was diluted with culter media to 100 fold of the final concentration (100× solution).
96-well plates were taken out from 37° C. CO2 incubator and morphological changes were observed by inverted microscope. In a ventilator, 1 μl of 100× drug solution was added to wells of 96 well plate until the final concentration of DMSO in the mixture is 1%. The plates were incubated at 37° C. in a CO2 environment for 48 h. 30 μl of Stead-G1® Luciferase Assay System (bought from Promega) was added to each well of 96 well plates and each plate is shaken in a plate shaker for 5 minutes to ensure cells cleavaged completely. The fluorescence signal was quantitated in a Perkin-Elmer plate reader (Envision) and integral time was setted to be 2 second. The following data were achieved after recording and analyzing the data.

[2] = liver microsome metabolity assay (PK Assays); assay type: in vitro ADME, human; conditions: pH 7.4
Method: The following liver microsome metabolity assays validated the PK properties of compounds of Formula (I). 1. Buffer A: 1.0 L 0.1 M potassium phosphate monobasic buffer (including 1.0 mM EDTA); Buffer B: 1.0 L 0.1 M dipotassium phosphate buffer (including 1.0 mM EDTA); Buffer C: 0.1 M potassium phosphate buffer (including 1.0 mM EDTA), pH 7.4, add Buffer A to 700 ml of Buffer B until pH is 7.4. 2. Drug solution: 500 μM solution: a 10 μL (10 mM) DMSO was added to 190 μL ACN; 1.5 μM solution (dissolved in human microsome and the final concentration of microsome is 0.75 mg/mL): 1.5 μL (500 μM) of drug solution and 18.75 μL of human microsome (20 mg/mL) were added to 479.75 uL of Buffer C. 3. NADPH solution (6 mM, dissolved in Buffer C). 4. 30 µL of drug solution (1.5 μM) was added to a 96-well plate, setting locations for different time points; Preincubated for 10 minutes at 37° C. 5. […] of NADPH (6 mM) was added to the location for 45-min time point; and timing started. 6. At 30, 15 and 5 min, […] of NADPH (6 mM) was added to each corresponding locations, respectively. 7. After the reaction was completed mins), 135 μL acetonitrile was added to the locations for all different time points; 15 µL of NADPH (6 mM) was added to the location for 0 min time point. 8. Centrifugated at 3220 g for 10 min. 9. 50 μL of supernatant was collected and mixed with 50 μL, of ultrapure water. Samples were sent to LC/MS for analysis.

SMILES | EC50 [1] | half-life at 1 µM ([2]; human, microsomes) | half-life at 1 µM ([2]; human liver microsomes, human microsome 0.75 mg/mL, 1.5 μM drug solution, NADPH, 37° C., time points 0-45 min, LC/MS, read-out: t1/2)
C=C[C@@H]1C[C@]1(NC(=O)[C@@H]1C[C@@H]2CN1C(=O)[C@H](C(C)(C)C)NC(=O)[C@@H](NC(=O)OC(C)(C)C)COC/C=C/c1cccc3c1CN(C3)C(=O)O2)C(=O)NS(=O)(=O)C1CC1 [Compound IIa-1, tert-butyl N-[(1R,12E,17S,20S,23S)-20-tert-butyl-23-{[(1R,2S)-1-[(cyclopropanesulfonyl)carbamoyl]-2-ethenylcyclopropyl]carbamoyl}-3,18,21-trioxo-2,15-dioxa-4,19,22-triazatetracyclo[20.2.1.1^4,7.0^6,11]hexacosa-6,8,10,12-tetraen-17-yl]carbamate] | < 10 nM | 3.3 h | 
C=C[C@@H]1C[C@]1(NC(=O)[C@@H]1C[C@@H]2CN1C(=O)[C@H](C1CCCCC1)NC(=O)[C@@H](NC(=O)OC(C)(C)C)COC/C=C/c1cccc3c1CN(C3)C(=O)O2)C(=O)NS(=O)(=O)C1CC1 [Compound IIa-16, tert-butyl N-[(1R,12E,17S,20S,23S)-20-cyclohexyl-23-{[(1R,2S)-1-[(cyclopropanesulfonyl)carbamoyl]-2-ethenylcyclopropyl]carbamoyl}-3,18,21-trioxo-2,15-dioxa-4,19,22-triazatetracyclo[20.2.1.1^4,7.0^6,11]hexacosa-6,8,10,12-tetraen-17-yl]carbamate] | < 10 nM | 3.22 h | 
C=C[C@@H]1C[C@]1(NC(=O)[C@@H]1C[C@@H]2CN1C(=O)[C@H](C1CCCCC1)NC(=O)[C@@H](NC(=O)OC(C)(C)C)COC/C=C/c1cc3c(nccc3cc1OC)O2)C(=O)NS(=O)(=O)C1CC1 [Compound IIb-3, tert-butyl N-[(3R,5S,8S,11S,15E)-8-cyclohexyl-5-{[(1R,2S)-1-[(cyclopropanesulfonyl)carbamoyl]-2-ethenylcyclopropyl]carbamoyl}-18-methoxy-7,10-dioxo-2,13-dioxa-6,9,23-triazatetracyclo[15.6.2.1^3,6.0^20,24]hexacosa-1(23),15,17(25),18,20(24),21-hexaen-11-yl]carbamate] | < 10 nM | 3.83 h | 
CC[C@@H]1C[C@]1(NC(=O)[C@@H]1C[C@@H]2CN1C(=O)[C@H](C1CCCCC1)NC(=O)[C@@H](NC(=O)OC(C)(C)C)COC/C=C/c1cc3c(nccc3cc1OC)O2)C(=O)NS(=O)(=O)C1CC1 [Compound IIb-5, tert-butyl N-[(3R,5S,8S,11S,15E)-8-cyclohexyl-5-{[(1R,2R)-1-[(cyclopropanesulfonyl)carbamoyl]-2-ethylcyclopropyl]carbamoyl}-18-methoxy-7,10-dioxo-2,13-dioxa-6,9,23-triazatetracyclo[15.6.2.1^3,6.0^20,24]hexacosa-1(23),15,17(25),18,20(24),21-hexaen-11-yl]carbamate] | 10 to 50 nM |  | 
C=C[C@@H]1C[C@]1(NC(=O)[C@@H]1C[C@@H]2CN1C(=O)[C@H](C1CCCCC1)NC(=O)[C@@H](NC(=O)OC(C)(C)C)COC/C=C/c1cc3c(nccc3cc1OC)O2)C(=O)O [Compound IIb-7, tert-butyl N-[(3R,5S,8S,11S,15E)-8-cyclohexyl-5-{[(1R,2S)-1-hydroxycarbonyl-2-ethenylcyclopropyl]carbamoyl}-18-methoxy-7,10-dioxo-2,13-dioxa-6,9,23-triazatetracyclo[15.6.2.13,6.020,24]hexacosa-1(23),15,17(25),18,20(24),21-hexaen-11-yl]carbamate] | 500 to 20000 nM |  | 
CC[C@@H]1C[C@]1(NC(=O)[C@@H]1C[C@@H]2CN1C(=O)[C@H](C(C)(C)C)NC(=O)OCC(C)(C)CCCCc1cccc3c1CN(C3)C(=O)O2)C(=O)NS(=O)(=O)C1CC1 [MK7009, reference compound] | < 10 nM |  | 0.433 h
